Assay results taken from US9018214B2, “Bicyclic heterocycle compounds and their uses in therapy” (Astex Therapeutics Limited, priority 2011, dated 2015).
Where a name gives a salt, the structure may show the parent alone. Read-outs that look alike come from different tables or passages of the source.

Tests used:
[1] = biological target: BIR3 domain of human XIAP (residues 252-350) (Homo sapiens (Human), UniProt P98170); test: XIAP in vitro competitive displacement binding assay (fluorescence polarization); conditions: for IC50: read-out: IC50 or PI Xiap: IC50; for inhibition at 0.04 µM: 1 h, read-out: IC50 or PI Xiap: PI
[2] = biological target: BIR3 domain of human cIAP-1 (residues 267-363) (Homo sapiens (Human), UniProt Q13490); test: cIAP-1 in vitro competitive displacement binding assay (fluorescence polarization; Probe A AVPIK(5&6FAM)-amide or Probe B AbuRPFK(5&6FAM)-amide)
[3] = system: EVSA-T (human breast carcinoma); test: Anti-proliferative activity, Alamar Blue assay, EVSA-T; type: cell-based; conditions: Homo sapiens, EVSA-T, read-out: EVSA-T prolif (EC50)
[4] = Probe B AbuRPFK(5&6FAM)-amide, read-out: IC50 or PI cIAP1: IC50
[5] = 3 h, Probe B, @ 0.012 μM, read-out: IC50 or PI cIAP1: PI
[6] = 3 h, read-out: IC50 or PI cIAP1: PI

| Compound | IC50 [1] [nM] | IC50 [2, 4] [nM] | EC50 ([3]; 72 hours, Alamar Blue) [nM] | inhibition at […] [2, 6] [%] | IC50 [2] [nM] | other results |
| --- | --- | --- | --- | --- | --- | --- |
| C[C@@H]1CN(CC(=O)N2CC(C)(c3ccccc3)c3ccc(C#N)cc32)[C@@H](C(=O)N2CCOCC2)CN1 (stereo partly drawn) [Example 149, 3-Methyl-1-{2-[(2R,5R)-5-methyl-2-[(morpholin-4-yl)carbonyl]piperazin-1-yl]acetyl}-3-phenyl-2,3-dihydro-1H-indole-6-carbonitrile hydrochloride] | 55 | 130 | 9200 |  |  |  |
| C[C@@H]1CN(CC(=O)N2C[C@@](C)(c3ccccc3)c3ccc(C#N)cc32)[C@@H](C(=O)N2CCOCC2)CN1 [Example 152, (3S)-3-Methyl-1-{2-[(2R,5R)-5-methyl-2-[(morpholin-4-yl)carbonyl]piperazin-1-yl]acetyl}-3-phenyl-2,3-dihydro-1H-indole-6-carbonitrile] | 65 | 110 | 3700 |  |  |  |
| C[C@@H]1CN(CC(=O)N2C[C@](C)(c3ccccc3)c3ccc(C#N)cc32)[C@@H](C(=O)N2CCOCC2)CN1 [Example 153, (3R)-3-Methyl-1-{2-[(2R,5R)-5-methyl-2-[(morpholin-4-yl)carbonyl]piperazin-1-yl]acetyl}-3-phenyl-2,3-dihydro-1H-indole-6-carbonitrile] |  | 160 | 4000 |  |  | inhibition at 0.04 µM ([1]; @ 0.04 μM): 54% |
| C[C@@H]1CN(CC(=O)N2CC(C)(C)c3cnc(Cc4ccccc4)cc32)[C@@H](Cn2cc(F)cn2)CN1 [Example 157, 1-{6-Benzyl-3,3-dimethyl-1H,2H,3H-pyrrolo[3,2-c]pyridin-1-yl}-2-[(2R,5R)-2-[(4-fluoro-1H-pyrazol-1-yl)methyl]-5-methylpiperazin-1-yl]ethan-1-one hydrochloride] | 65 |  | 95 |  |  | inhibition at […] [2, 5]: 78% |
| C[C@@H]1CN(CC(=O)N2CC(C)(C)c3cnc(C(F)(F)c4ccccc4)cc32)[C@@H](C(=O)N(C)C)CN1 [Example 158, (2R,5R)-1-(2-{6-[Difluoro(phenyl)methyl]-3,3-dimethyl-1H,2H,3H-pyrrolo[3,2-c]pyridin-1-yl}-2-oxoethyl)-N,N,5-trimethylpiperazine-2-carboxamide dihydrochloride] | 49 |  |  |  |  | inhibition at 0.01 µM [2, 6]: 51%; EC50 ([3]; 72 h): 300 nM |
| Cc1cnn(C[C@H]2CN[C@H](C)CN2CC(=O)N2CC(C)(C)c3cnc(C(F)(F)c4ccccc4)cc32)c1 [Example 159, 1-{6-[Difluoro(phenyl)methyl]-3,3-dimethyl-1H,2H,3H-pyrrolo[3,2-c]pyridin-1-yl}-2-[(2R,5R)-5-methyl-2-[(4-methyl-1H-pyrazol-1-yl)methyl]piperazin-1-yl]ethan-1-one dihydrochloride] |  |  | 120 | 72 |  | inhibition at 0.04 µM [1]: 56% |
| Cc1cnn(C[C@H]2CN[C@H](C)CN2CC(=O)N2CC3(Cc4ccccc4C3)c3ccc(C#N)cc32)c1 [Example 161, 1′-{2-[(2R,5R)-5-Methyl-2-[(4-methyl-1H-pyrazol-1-yl)methyl]piperazin-1-yl]acetyl}-1,1′,2′,3-tetrahydrospiro[indene-2,3′-indole]-6′-carbonitrile] | 60 | 110 | 1700 |  | < 1000 |  |
| COC[C@H]1CN[C@H](C)CN1CC(=O)N1CC(C)(c2cccnc2)c2ccc(Cc3ccccc3)cc21 (stereo partly drawn) [Example 163, 1-[6-Benzyl-3-methyl-3-(pyridin-3-yl)-2,3-dihydro-1H-indol-1-yl]-2-[(2R,5R)-2-(methoxymethyl)-5-methylpiperazin-1-yl]ethan-1-one hydrochloride] | 160 | 13 | 450 |  | < 1000 |  |
| C[C@@H]1CN(CC(=O)N2CC(C)(C)c3cnc(Cc4ccc(F)cc4F)cc32)[C@@H](C(=O)N(C)C)CN1 [Example 164, (2R,5R)-1-(2-{6-[(2,4-Difluorophenyl)methyl]-3,3-dimethyl-1H,2H,3H-pyrrolo[3,2-c]pyridin-1-yl}-2-oxoethyl)-N,N,5-trimethylpiperazine-2-carboxamide dihydrochloride] | 120 |  |  | 86 |  | EC50 ([3]; 72 h): 45 nM |
| C[C@@H]1CN(CC(=O)N2CC(C)(C)c3cnc(Oc4ccccc4Cl)cc32)[C@@H](C(=O)N2CCOCC2)CN1 [Example 165, 1-[6-(2-Chlorophenoxy)-3,3-dimethyl-1H,2H,3H-pyrrolo[3,2-c]pyridin-1-yl]-2-[(2R,5R)-5-methyl-2-[(morpholin-4-yl)carbonyl]piperazin-1-yl]ethan-1-one dihydrochloride] |  |  |  |  | < 1000 | inhibition at 0.04 µM [1]: 65%; IC50 ([2]; read-out: IC50 or PI cIAP1: IC50): 14 nM; EC50 ([3]; 72 h): 650 nM |
| COC[C@H]1CN[C@H](C)CN1CC(=O)N1CC(C)(C)c2c[n+]([O-])c(Cc3ccc(F)cc3F)cc21 [Example 166, 6-[(2,4-Difluorophenyl)methyl]-1-{2-[(2R,5R)-2-(methoxymethyl)-5-methylpiperazin-1-yl]acetyl}-3,3-dimethyl-1H,2H,3H-1,5λ^5-pyrrolo[3,2-c][1λ^5]pyridin-5-one hydrochloride] | 150 |  | 130 |  |  | inhibition at […] [2, 5]: 76% |
| C[C@@H]1CN(CC(=O)N2CC(C)(C)c3c[n+]([O-])c(Cc4ccc(F)cc4F)cc32)[C@@H](C(=O)N(C)C)CN1 [Example 167, (2R,5R)-1-(2-{6-[(2,4-Difluorophenyl)methyl]-3,3-dimethyl-5-oxo-1H,2H,3H-1,5λ^5-pyrrolo[3,2-c][1λ^5]pyridin-1-yl}-2-oxoethyl)-N,N,5-trimethylpiperazine-2-carboxamide hydrochloride] | 100 |  | 260 |  |  | inhibition at […] [2, 5]: 84% |
| C[C@@H]1CN(CC(=O)N2CC(C)(C)c3cnc(Cc4ccccc4)cc32)[C@@H](CN2CCCC2=O)CN1 [Example 172, 1-{[(2R,5R)-1-(2-{6-Benzyl-3,3-dimethyl-1H,2H,3H-pyrrolo[3,2-c]pyridin-1-yl}-2-oxoethyl)-5-methylpiperazin-2-yl]methyl}pyrrolidin-2-one dihydrochloride] |  |  | 56 | 78 |  | inhibition at 0.04 µM [1]: 58% |
| C[C@@H]1CN(CC(=O)N2CC(C)(C)c3cnc(C(F)(F)c4ccccc4)cc32)[C@@H](CN2CCCC2=O)CN1 [Example 173, 1-{[(2R,5R)-1-(2-{6-[Difluoro(phenyl)methyl]-3,3-dimethyl-1H,2H,3H-pyrrolo[3,2-c]pyridin-1-yl}-2-oxoethyl)-5-methylpiperazin-2-yl]methyl}pyrrolidin-2-one dihydrochloride] |  |  | 36 | 80 |  | inhibition at 0.04 µM [1]: 73% |
| COC[C@H]1CN[C@H](C)CN1CC(=O)N1C[C@](C)(c2cc(C)no2)c2ccc(Cc3ccccc3)cc21 [Example 174, 1-[(3R)-6-Benzyl-3-methyl-3-(3-methyl-1,2-oxazol-5-yl)-2,3-dihydro-1H-indol-1-yl]-2-[(2R,5R)-2-(methoxymethyl)-5-methylpiperazin-1-yl]ethan-1-one hydrochloride] | 760 | 190 | 2500 |  | < 1000 |  |
| COC[C@H]1CN[C@H](C)CN1CC(=O)N1C[C@@](C)(c2cc(C)no2)c2ccc(Cc3ccccc3)cc21 [Example 175, 1-[(3S)-6-Benzyl-3-methyl-3-(3-methyl-1,2-oxazol-5-yl)-2,3-dihydro-1H-indol-1-yl]-2-[(2R,5R)-2-(methoxymethyl)-5-methylpiperazin-1-yl]ethan-1-one hydrochloride] | 110 | 11 | 200 |  | < 1000 |  |
| C[C@@H]1CN(CC(=O)N2CC(C)(C)c3cnc(C(F)(F)c4ccccc4)cc32)[C@@H](Cn2cc(F)cn2)CN1 [Example 176, 1-{6-[Difluoro(phenyl)methyl]-3,3-dimethyl-1H,2H,3H-pyrrolo[3,2-c]pyridin-1-yl}-2-[(2R,5R)-2-[(4-fluoro-1H-pyrazol-1-yl)methyl]-5-methylpiperazin-1-yl]ethan-1-one hydrochloride] |  |  | 26 |  |  | inhibition at 0.04 µM ([1]; @ 0.04 μM): 52%; inhibition at […] [2, 5]: 70% |
| C[C@@H]1CN(CC(=O)N2CC(C)(C)c3cnc(Oc4ccccc4Cl)cc32)[C@@H](Cn2cc(F)cn2)CN1 [Example 177, 1-[6-(2-Chlorophenoxy)-3,3-dimethyl-1H,2H,3H-pyrrolo[3,2-c]pyridin-1-yl]-2-[(2R,5R)-2-[(4-fluoro-1H-pyrazol-1-yl)methyl]-5-methylpiperazin-1-yl]ethan-1-one hydrochloride] | 49 | 18 | 270 |  | < 1000 |  |
| C[C@@H]1CN(CC(=O)N2CC(C)(C)c3cnc(C(F)(F)c4ccccc4)cc32)[C@@H](C(=O)N2CCOCC2)CN1 [Example 178, 1-{6-[Difluoro(phenyl)methyl]-3,3-dimethyl-1H,2H,3H-pyrrolo[3,2-c]pyridin-1-yl}-2-[(2R,5R)-5-methyl-2-[(morpholin-4-yl)carbonyl]piperazin-1-yl]ethan-1-one dihydrochloride] |  |  | 67 | 60 |  | inhibition at 0.04 µM [1]: 50% |
| C[C@@H]1CN(CC(=O)N2CC(C)(C)c3cnc(Cc4ccc(F)cc4F)cc32)[C@@H](Cn2cccnc2=O)CN1 [Example 185, 1-{[(2R,5R)-1-(2-{6-[(2,4-Difluorophenyl)methyl]-3,3-dimethyl-1H,2H,3H-pyrrolo[3,2-c]pyridin-1-yl}-2-oxoethyl)-5-methylpiperazin-2-yl]methyl}-1,2-dihydropyrimidin-2-one dihydrochloride] | 77 |  |  | 94 |  | EC50 ([3]; 72 h): 10 nM |
